From ChEMBL document CHEMBL5257042, “Highly Oxidized Ecdysteroids from a Commercial Cyanotis arachnoidea Root Extract as Potent Blood-Brain Barrier Protective Agents” (J Nat Prod, 2023)
Calls of active or inactive are those of the source. No cut-off for these calls is given here.

How the values were obtained:
[1] = Cytotoxicity against human CMEC/D3 cells assessed as increase in cell impedance at 1 uM incubated for 4 hrs by RTCA assay; assay type: toxicity, cell-based; settings: hcmec/d3, 4 h
[2] = Cytotoxicity against human CMEC/D3 cells assessed as decrease in cell impedance at 10 uM incubated for 4 hrs by RTCA assay; assay type: toxicity, cell-based; settings: hcmec/d3, 4 h
[3] = system: hCMEC/D3; test: Cytoprotective activity against tBHP-induced oxidative damage in human CMEC/D3 cells at 1 uM incubated for 4 hrs by RTCA assay; assay type: functional, cell-based
[4] = system: hCMEC/D3; test: Cytoprotective activity against TNFalpha-induced cellular damage in human CMEC/D3 cells assessed as increase in cell impedance at 1 uM incubated for 4 hrs by RTCA assay; assay type: functional, cell-based
[5] = system: hCMEC/D3; test: Cytoprotective activity against IL-1beta-induced cellular damage in human CMEC/D3 cells assessed as increase in cell impedance at 1 uM incubated for 4 hrs by RTCA assay; assay type: functional, cell-based

SMILES	Activity [1]	Activity [2]	Activity [3]	Activity [4]	Activity [5]
CC(C)(O)CC[C@@H](O)[C@](C)(O)[C@H]1C[C@H](O)C2=C3C(=O)C(O)=C4C[C@@H](O)[C@@H](O)C[C@]4(C)[C@@]3(O)CC[C@@]21C	Non-Toxic	Non-Toxic	Active	Active	Active
CC(C)(O)CCC(=O)[C@](C)(O)[C@H]1CC(=O)C2=C3C(=O)C(O)=C4C[C@@H](O)[C@@H](O)C[C@]4(C)C3=CC[C@@]21C	Non-Toxic	Non-Toxic	Active	Active	Active
CC(C)(O)CC[C@H]1O[C@H]2C(=O)[C@@H]3C4=C(CC[C@]3(C)[C@H]2[C@@]1(C)O)[C@@]1(C)C[C@H](O)[C@H](O)CC1=C(O)C4=O	Non-Toxic	Toxic	Active	Active	Active
